From patent US20240082416A1, “AMATOXIN ANALOGS AND USES THEREOF” (THE UNIVERSITY OF BRITISH COLUMBIA, priority 2020, published 2024)
Starred links: 1 amine or outer side, 2 acyl side, 3 side chain; linkers in the order of their positions; H or OH if unused. Positions of bridges follow the written chain, without caps; N, C: chain ends. Non-standard residues stand in square brackets, D forms with d. Residues, ends and D or L forms follow the SMILES beside them. Trp(2-yl) = O=C([C@H](Cc1c([*:3])[nH]c2ccccc12)N[*:1])[*:2]; Pro(trans-4-guanidino) = N=C(N)N[C@H]1CN[C@H](C(=O)O)C1; Pro(4R-SH) = O=C([C@@H]1C[C@@H](S[*:3])CN1[*:1])[*:2]; Ile(4R-OH,5-OH) = C[C@H]([C@H](N)C(=O)O)[C@@H](O)CO; X1 = N#C[C@@H]1C[C@@H](C(=O)[*:2])N([*:1])C1; Pro(4R-NH2) = N[C@H]1CN[C@H](C(=O)O)C1

Assay: Viability assay against CHO cells (MTT colorimetric assay)
Type: cell-based, Chinese hamster
Conditions: Chinese hamster, CHO cells, 72 h, replicates n = 1, 2, 3, read-out: % viable cells; for viability at 72 h, 1e-05 M: 1e-005 M; for viability at 72 h, 1.25e-06 M: 1.25e-006 M; for viability at 72 h, 1.56e-07 M: 1.56e-007 M; for viability at 72 h, 2e-05 M: 2e-005 M; for viability at 72 h, 2.5e-06 M: 2.5e-006 M; for viability at 72 h, 3.125e-07 M: 3.125e-007 M; for viability at 72 h, 5e-06 M: 5e-006 M; for viability at 72 h, 6.25e-07 M: 6.25e-007 M; for viability at 72 h, 7.8e-08 M: 7.8e-008 M

Structure (SMILES) | viability at 72 h, 1e-05 M [%] | viability at 72 h, 1.25e-06 M [%] | viability at 72 h, 1.56e-07 M [%] | viability at 72 h, 2e-05 M [%] | viability at 72 h, 2.5e-06 M [%] | viability at 72 h, 3.125e-07 M [%] | viability at 72 h, 5e-06 M [%] | viability at 72 h, 6.25e-07 M [%] | viability at 72 h, 7.8e-08 M [%]
CC[C@H](C)[C@@H]1NC(=O)CNC(=O)[C@@H]2Cc3c([nH]c4ccccc34)SC[C@H](NC(=O)CNC1=O)C(=O)N[C@@H](CC(N)=O)C(=O)N1C[C@H](C#N)C[C@H]1C(=O)N[C@@H]([C@@H](C)[C@@H](O)CO)C(=O)N2 [Compound 4, CN-Pro-amanitin] (cyclo(CN[X1][Ile(4R-OH,5-OH)][Trp(2-yl)]GIG); thioether 1-5) | 110 | 102 | 102 | 121 | 101 | 99 | 103 | 102 | –
CC[C@H](C)[C@@H]1NC(=O)CNC(=O)[C@@H]2Cc3c([nH]c4ccccc34)SC[C@H](NC(=O)CNC1=O)C(=O)N[C@@H](CC(N)=O)C(=O)N1C[C@H](S)C[C@H]1C(=O)N[C@@H]([C@@H](C)[C@@H](O)CO)C(=O)N2 [Compound 5, SH-Pro-amanitin] (cyclo(CN[Pro(4R-SH)][Ile(4R-OH,5-OH)][Trp(2-yl)]GIG); thioether 1-5) | 94 | 93 | 93 | 106 | 91 | 94 | 100 | 98 | 94
CC[C@H](C)[C@@H]1NC(=O)CNC(=O)[C@@H]2Cc3c([nH]c4ccccc34)SC[C@H](NC(=O)CNC1=O)C(=O)N[C@@H](CC(N)=O)C(=O)N1C[C@H](N)C[C@H]1C(=O)N[C@@H]([C@@H](C)[C@@H](O)CO)C(=O)N2 [Compound 6, NH2-Pro-amanitin] (cyclo(CN[Pro(4R-NH2)][Ile(4R-OH,5-OH)][Trp(2-yl)]GIG); thioether 1-5) | 91 | 95 | 95 | 92 | 86 | 86 | 87 | 92 | 96
CC[C@H](C)[C@@H]1NC(=O)CNC(=O)[C@@H]2Cc3c([nH]c4ccccc34)SC[C@H](NC(=O)CNC1=O)C(=O)N[C@@H](CC(N)=O)C(=O)N1C[C@H](NC(=N)N)C[C@H]1C(=O)N[C@@H]([C@@H](C)[C@@H](O)CO)C(=O)N2 [Compound 7, Gdn-Pro-amanitin] (cyclo(CN[Pro(trans-4-guanidino)][Ile(4R-OH,5-OH)][Trp(2-yl)]GIG); thioether 1-5) | 100 | 89 | 88 | 99 | 90 | 85 | 93 | 88 | 96
